{
  "source": "patent US20140329863A1",
  "about": "(priority 2011, published 2014)",
  "key": {"[1]": {"tested_on": "PrP^Sc in dividing ScN2a-cl3 cells", "assay_type": "cell-based, mouse", "conditions": "for Inhibition of Baseline PrP^5c (%) Dividing Cells ELISA: SPC assay"}, "N2a-cl3 cells": {"tested_on": "N2a-cl3 cells", "conditions": "for Potency (μM) Cell Viability: mouse"}, "[2]": {"tested_on": "PrP^Sc in nondividing ScN2a-cl3 cells", "assay_type": "cell-based, mouse", "conditions": "SPC assay, nondividing cells"}, "[3]": {"conditions": "Table 29, 2-AMT analogs tested for potency, usually n = 3 or more"}},
  "note": "Like-named read-outs stand apart in the source and are kept apart here.",
  "data": [
    {"smiles": "Nc1c(C(=O)Nc2cc(F)ccc2F)sc2nc(-c3ccncc3)ccc12", "note": "[IND-0024575]", "values": [
      {"measurement": "EC50", "setting": "[1]; read-out: Antiprion activity EC50, thienopyridine analogs", "result": 3.49, "unit": "µM"}
    ]},
    {"smiles": "COc1cc(CN2CCN(c3cccc(C)c3C)CC2)cc(Br)c1O", "note": "[IND-15461]", "values": [
      {"measurement": "Non-dividing Cells V (cell viability percentages)", "setting": "N2a-cl3 cells", "result": 3, "unit": "%"},
      {"measurement": "Inhibition of Baseline PrP^5c (%) Dividing Cells ELISA", "setting": "[1]; dividing cells", "result": 22, "unit": "%"},
      {"measurement": "Inhibition of Baseline PrP^5c (%) Non-dividing Cells ELISA", "setting": "[2]", "result": 48, "unit": "%"}
    ]},
    {"smiles": "CCN1CCN(c2ccc(Nc3ccnc4cc5ccccc5cc34)cc2)CC1", "note": "[IND-2118]", "values": [
      {"measurement": "Dividing Cells V (cell viability percentages)", "setting": "N2a-cl3 cells", "result": 25, "unit": "%"},
      {"measurement": "Non-dividing Cells V (cell viability percentages)", "setting": "N2a-cl3 cells", "result": 24, "unit": "%"},
      {"measurement": "Inhibition of Baseline PrP^5c (%) Dividing Cells ELISA", "setting": "[1]; dividing cells", "result": 76, "unit": "%"},
      {"measurement": "Inhibition of Baseline PrP^5c (%) Non-dividing Cells ELISA", "setting": "[2]", "result": 51, "unit": "%"}
    ]},
    {"smiles": "CC(=O)c1ccc(N2CCN(Cc3cccc(Cl)c3)CC2)cc1", "note": "[IND-7486]", "values": [
      {"measurement": "Dividing Cells V (cell viability percentages)", "setting": "N2a-cl3 cells", "result": 6, "unit": "%"},
      {"measurement": "Non-dividing Cells V (cell viability percentages)", "setting": "N2a-cl3 cells", "result": 12, "unit": "%"},
      {"measurement": "Inhibition of Baseline PrP^5c (%) Dividing Cells ELISA", "setting": "[1]; dividing cells", "result": 84, "unit": "%"},
      {"measurement": "Inhibition of Baseline PrP^5c (%) Non-dividing Cells ELISA", "setting": "[2]", "result": 31, "unit": "%"}
    ]},
    {"smiles": "Cc1ccc2[nH]c3c(c2c1)CCCC3NCC12CC3CC(CC(C3)C1)C2", "note": "(centres unmarked) [IND-4176]", "values": [
      {"measurement": "Dividing Cells V (cell viability percentages)", "setting": "N2a-cl3 cells", "result": 9, "unit": "%"},
      {"measurement": "Inhibition of Baseline PrP^5c (%) Dividing Cells ELISA", "setting": "[1]; dividing cells", "result": 98, "unit": "%"},
      {"measurement": "Inhibition of Baseline PrP^5c (%) Non-dividing Cells ELISA", "setting": "[2]", "result": 53, "unit": "%"}
    ]},
    {"smiles": "Nc1c(/N=N/c2ccc(-c3ccc(/N=N/c4cc(S(=O)(=O)O)c5ccccc5c4N)cc3)cc2)cc(S(=O)(=O)O)c2ccccc12", "note": "[Congo Red]", "values": [
      {"measurement": "Potency (μM) Cell Viability", "setting": "N2a-cl3 cells", "result": ">10", "unit": "µM"},
      {"measurement": "EC50", "setting": "[1]; read-out: Potency (μM) ELISA (EC50), FDA-approved drugs, ScN2a-c13 assay, dividing cells", "result": 0.452, "unit": "µM"}
    ]},
    {"smiles": "CC(=O)c1ccc(N2CCN(Cc3ccc(F)cc3F)CC2)cc1", "note": "[IND-18785]", "values": [
      {"measurement": "Dividing Cells V (cell viability percentages)", "setting": "N2a-cl3 cells", "result": 30, "unit": "%"},
      {"measurement": "Non-dividing Cells V (cell viability percentages)", "setting": "N2a-cl3 cells", "result": 20, "unit": "%"},
      {"measurement": "Inhibition of Baseline PrP^5c (%) Dividing Cells ELISA", "setting": "[1]; dividing cells", "result": 85, "unit": "%"},
      {"measurement": "Inhibition of Baseline PrP^5c (%) Non-dividing Cells ELISA", "setting": "[2]", "result": 30, "unit": "%"}
    ]},
    {"smiles": "CCCCc1oc2ccccc2c1C(=O)c1cc(I)c(OCCN(CC)CC)c(I)c1", "note": "[Amiodarone]", "values": [
      {"measurement": "Potency (μM) Cell Viability", "setting": "N2a-cl3 cells", "result": ">10", "unit": "µM"}
    ]},
    {"smiles": "COc1ccc(-c2csc(Nc3cnccn3)n2)cc1OC", "note": "[IND82, [4-(3,4-Dimethoxy-phenyl)-thiazol-2-yl]-pyrazin-2-yl-amine]", "values": [
      {"measurement": "EC50", "setting": "[1]; AMT analogs tested for potency", "result": 15.6, "unit": "µM"},
      {"measurement": "EC50", "setting": "[1]; [3]", "result": 15.6, "unit": "µM"}
    ]},
    {"smiles": "Cc1ccc(Nc2nc(-c3ccc(-c4ccccn4)s3)cs2)nc1", "note": "[IND76, (5-Methyl-pyridin-2-yl)-[4-(5-pyridin-2-yl-thiophen-2-yl)-thiazol-2-yl]-amine]", "values": [
      {"measurement": "EC50", "setting": "[1]; AMT analogs tested for potency", "result": 1.23, "unit": "µM"},
      {"measurement": "EC50", "setting": "[1]; [3]", "result": 1.23, "unit": "µM"}
    ]},
    {"smiles": "O=C(Nc1ccc(F)c(Cl)c1)Nc1ccc(Cl)c(Cl)c1", "note": "[IND-8255]", "values": [
      {"measurement": "Dividing Cells V (cell viability percentages)", "setting": "N2a-cl3 cells", "result": 2, "unit": "%"},
      {"measurement": "Non-dividing Cells V (cell viability percentages)", "setting": "N2a-cl3 cells", "result": 11, "unit": "%"},
      {"measurement": "Inhibition of Baseline PrP^5c (%) Dividing Cells ELISA", "setting": "[1]; dividing cells", "result": 92, "unit": "%"},
      {"measurement": "Inhibition of Baseline PrP^5c (%) Non-dividing Cells ELISA", "setting": "[2]", "result": 61, "unit": "%"}
    ]},
    {"smiles": "COc1ccc(-c2csc(Nc3ccccn3)n2)cc1OC", "note": "[IND135, [4-(3,4-Dimethoxy-phenyl)-thiazol-2-yl]-pyridin-2-yl-amine]", "values": [
      {"measurement": "EC50", "setting": "[1]; AMT analogs tested for potency", "result": 1.23, "unit": "µM"}
    ]},
    {"smiles": "Cc1ccnc(Nc2nc(-c3cc(-c4ccc(Cl)cc4)no3)cs2)c1", "note": "[IND64, {4-[3-(4-Chloro-phenyl)-isoxazol-5-yl]-thiazol-2-yl}-(4-methyl-pyridin-2-yl)-amine]", "values": [
      {"measurement": "EC50", "setting": "[1]; AMT analogs tested for potency", "result": 0.85, "unit": "µM"},
      {"measurement": "EC50", "setting": "[1]; [3]", "result": 0.85, "unit": "µM"}
    ]},
    {"smiles": "CC(=O)c1ccc(N2CCN(Cc3ccc(Br)s3)CC2)cc1", "note": "[IND-7190]", "values": [
      {"measurement": "Dividing Cells V (cell viability percentages)", "setting": "N2a-cl3 cells", "result": 8, "unit": "%"},
      {"measurement": "Non-dividing Cells V (cell viability percentages)", "setting": "N2a-cl3 cells", "result": 12, "unit": "%"},
      {"measurement": "Inhibition of Baseline PrP^5c (%) Dividing Cells ELISA", "setting": "[1]; dividing cells", "result": 97, "unit": "%"},
      {"measurement": "Inhibition of Baseline PrP^5c (%) Non-dividing Cells ELISA", "setting": "[2]", "result": 34, "unit": "%"}
    ]},
    {"smiles": "COc1ccc(-c2csc(Nc3ccc(C(F)(F)F)cn3)n2)cc1OC", "note": "[IND43, [4-(3,4-Dimethoxy-phenyl)-thiazol-2-yl]-(5-trifluoromethyl-pyridin-2-yl)-amine]", "values": [
      {"measurement": "EC50", "setting": "[1]; AMT analogs tested for potency", "result": 2.53, "unit": "µM"},
      {"measurement": "EC50", "setting": "[1]; [3]", "result": 2.53, "unit": "µM"}
    ]},
    {"smiles": "O=C(Nc1ccc(Cl)cc1)Nc1ccc(Cl)c(F)c1", "note": "[IND-19237]", "values": [
      {"measurement": "Dividing Cells V (cell viability percentages)", "setting": "N2a-cl3 cells", "result": 2, "unit": "%"},
      {"measurement": "Non-dividing Cells V (cell viability percentages)", "setting": "N2a-cl3 cells", "result": 26, "unit": "%"},
      {"measurement": "Inhibition of Baseline PrP^5c (%) Dividing Cells ELISA", "setting": "[1]; dividing cells", "result": 25, "unit": "%"},
      {"measurement": "Inhibition of Baseline PrP^5c (%) Non-dividing Cells ELISA", "setting": "[2]", "result": 66, "unit": "%"}
    ]},
    {"smiles": "Cc1ccc2c(c1)c1c(n2CC(O)CO)C(=O)CCC1", "note": "(centres unmarked) [IND-15474]", "values": [
      {"measurement": "Dividing Cells V (cell viability percentages)", "setting": "N2a-cl3 cells", "result": 11, "unit": "%"},
      {"measurement": "Non-dividing Cells V (cell viability percentages)", "setting": "N2a-cl3 cells", "result": 9, "unit": "%"},
      {"measurement": "Inhibition of Baseline PrP^5c (%) Dividing Cells ELISA", "setting": "[1]; dividing cells", "result": 14, "unit": "%"},
      {"measurement": "Inhibition of Baseline PrP^5c (%) Non-dividing Cells ELISA", "setting": "[2]", "result": 39, "unit": "%"}
    ]}
  ]
}
